Key:
Format in all cases: cell-based
[1] = target: T1, Peroxisome proliferator-activated receptor gamma (Homo sapiens, UniProt P37231); assay: Agonist activity at GAL4-fused PPARgamma (unknown origin) expressed in human HepG2 cells by transactivation assay
T1 sequence (P37231 whole entry): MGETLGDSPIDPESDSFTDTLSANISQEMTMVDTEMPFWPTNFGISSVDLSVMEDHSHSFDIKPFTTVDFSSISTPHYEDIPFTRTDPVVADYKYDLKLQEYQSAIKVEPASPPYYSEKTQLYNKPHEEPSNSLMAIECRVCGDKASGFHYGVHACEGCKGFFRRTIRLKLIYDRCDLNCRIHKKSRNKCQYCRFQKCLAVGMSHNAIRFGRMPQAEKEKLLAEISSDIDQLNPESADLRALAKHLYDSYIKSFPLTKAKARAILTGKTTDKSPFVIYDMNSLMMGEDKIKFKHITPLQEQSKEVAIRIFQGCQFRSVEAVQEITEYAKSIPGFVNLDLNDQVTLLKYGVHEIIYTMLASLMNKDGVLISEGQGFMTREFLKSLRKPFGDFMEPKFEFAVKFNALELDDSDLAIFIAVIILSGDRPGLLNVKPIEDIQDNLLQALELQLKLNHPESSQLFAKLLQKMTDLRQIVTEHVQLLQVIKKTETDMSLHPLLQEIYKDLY

[2] = target: T2, Peroxisome proliferator-activated receptor alpha (Homo sapiens, UniProt Q07869); assay: Agonist activity at GAL4-fused PPARalpha (unknown origin) expressed in human HepG2 cells by transactivation assay
T2 sequence (Q07869 whole entry): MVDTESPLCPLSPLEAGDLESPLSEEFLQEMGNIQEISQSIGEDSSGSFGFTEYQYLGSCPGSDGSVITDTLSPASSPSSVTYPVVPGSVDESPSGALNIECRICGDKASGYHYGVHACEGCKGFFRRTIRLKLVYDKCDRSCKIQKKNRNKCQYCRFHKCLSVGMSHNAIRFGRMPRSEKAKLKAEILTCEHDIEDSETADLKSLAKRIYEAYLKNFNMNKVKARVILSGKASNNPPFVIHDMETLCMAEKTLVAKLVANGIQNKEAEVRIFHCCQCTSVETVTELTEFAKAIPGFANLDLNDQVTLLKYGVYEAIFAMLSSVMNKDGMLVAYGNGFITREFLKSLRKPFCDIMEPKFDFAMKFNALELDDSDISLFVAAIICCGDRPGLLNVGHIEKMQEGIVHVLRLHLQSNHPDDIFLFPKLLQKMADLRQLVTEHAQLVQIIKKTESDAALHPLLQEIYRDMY

[3] = target: Peroxisome proliferator-activated receptor alpha (Homo sapiens, UniProt Q07869, A454M); assay: Agonist activity at GAL4-fused PPARalpha A454M mutant (unknown origin) expressed in human HepG2 cells by transactivation assay
[4] = Agonist activity at GAL4-fused PPARgamma M463A mutant (unknown origin) expressed in human HepG2 cells by transactivation assay

Chain of Peroxisome proliferator-activated receptor alpha (Homo sapiens, UniProt Q07869, A454M) (Q07869 whole entry A454M, the tested form may be a part): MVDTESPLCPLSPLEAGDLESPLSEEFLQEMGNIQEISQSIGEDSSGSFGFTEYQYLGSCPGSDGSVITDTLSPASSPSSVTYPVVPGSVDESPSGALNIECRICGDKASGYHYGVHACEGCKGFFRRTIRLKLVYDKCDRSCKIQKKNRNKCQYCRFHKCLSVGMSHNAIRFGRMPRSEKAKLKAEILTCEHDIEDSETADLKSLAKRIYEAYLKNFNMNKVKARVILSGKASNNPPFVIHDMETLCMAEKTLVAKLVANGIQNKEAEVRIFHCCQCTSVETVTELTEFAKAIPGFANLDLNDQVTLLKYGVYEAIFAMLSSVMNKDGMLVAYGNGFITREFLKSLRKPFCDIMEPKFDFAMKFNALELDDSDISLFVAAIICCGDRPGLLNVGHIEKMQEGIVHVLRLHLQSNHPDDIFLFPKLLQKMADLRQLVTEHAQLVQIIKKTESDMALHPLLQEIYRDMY

`O=C(O)[C@H](CCOc1ccccc1)Oc1ccc(Cl)cc1` showed an EC50 ([1]; read-out: pEC50 (converted)) of 1.26 µM and an EC50 ([2]; read-out: pEC50 (converted)) of 3.02 µM.

Work on `O=C(O)[C@H](Cc1ccccc1)Oc1ccc(-c2ccc(Cl)cc2)cc1` yielded an EC50 ([1]; read-out: pEC50 (converted)) of 8.91 µM and an EC50 ([2]; read-out: pEC50 (converted)) of 3.89 µM.

For `O=C(O)[C@H](CCCc1ccccc1)Oc1ccc(Cl)cc1`, the EC50 ([1]; read-out: pEC50 (converted)) was 0.912 µM and the EC50 ([2]; read-out: pEC50 (converted)) was 0.589 µM.

With `O=C(O)[C@H](Cc1ccc(C(F)(F)F)cc1)Oc1ccc(Cl)cc1` the EC50 ([1]; read-out: pEC50 (converted)) was 0.417 µM and the EC50 ([2]; read-out: pEC50 (converted)) was 3.63 µM.

In the case of `O=C(O)[C@H](Cc1ccccc1)Oc1ccc(Oc2ccccc2)cc1`, the EC50 ([1]; read-out: pEC50 (converted)) is reported as 1.58 µM and the EC50 ([2]; read-out: pEC50 (converted)) is reported as 0.891 µM.

For `O=C(O)[C@H](COc1ccccc1)Oc1ccc(Cl)cc1`, the EC50 ([1]; read-out: pEC50 (converted)) was 1.66 µM and the EC50 ([2]; read-out: pEC50 (converted)) was 2.51 µM.

With `O=C(O)[C@H](Cc1ccc(-c2cccs2)cc1)Oc1ccc(Cl)cc1` the EC50 ([1]; read-out: pEC50 (converted)) was 0.0646 µM and the EC50 ([2]; read-out: pEC50 (converted)) was 0.589 µM.

`O=C(O)[C@H](Cc1ccc(-c2ccccc2)cc1)Oc1ccc(Cl)cc1` showed an EC50 ([1]; read-out: pEC50 (converted)) of 0.049 µM and an EC50 ([2]; read-out: pEC50 (converted)) of 1.12 µM.

In the case of `O=C(O)[C@H](Cc1ccc(Oc2ccccc2)cc1)Oc1ccc(Cl)cc1`, the EC50 [3] is reported as 0.9 µM, the EC50 ([1]; read-out: EC50) is reported as 0.32 µM and the EC50 ([1]; read-out: pEC50 (converted)) is reported as 0.0269 µM. The EC50 [4] was 0.34 µM, the EC50 ([2]; read-out: EC50) was 3.9 µM and the EC50 ([2]; read-out: pEC50 (converted)) was 0.871 µM.

`CN(CCOc1ccc(CC2SC(=O)NC2=O)cc1)c1ccccn1` (stereo unspecified) [ROSIGLITAZONE] showed an EC50 [4] of 0.002 µM.

`O=C(O)[C@H](Cc1ccccc1)Oc1ccc(Cc2ccccc2)cc1` gave an EC50 [3] of 0.4 µM, an EC50 ([1]; read-out: EC50) of 0.6 µM and an EC50 [4] of 0.47 µM. For the same compound, the EC50 ([2]; read-out: EC50) was 0.04 µM.

Work on `O=C(O)[C@H](CCCc1ccc(Cl)cc1)Oc1ccc(Cl)cc1` yielded an EC50 ([1]; read-out: pEC50 (converted)) of 0.316 µM and an EC50 ([2]; read-out: pEC50 (converted)) of 0.631 µM.

In the case of `O=C(O)[C@H](CCc1ccccc1)Oc1ccc(Cl)cc1`, the EC50 ([1]; read-out: pEC50 (converted)) is reported as 7.08 µM and the EC50 ([2]; read-out: pEC50 (converted)) is reported as 2.4 µM.

Source: ChEMBL document CHEMBL2375303, “Molecular determinants for nuclear receptors selectivity: chemometric analysis, dockings and site-directed mutagenesis of dual peroxisome proliferator-activated receptors α/γ agonists” (Eur J Med Chem, 2013)
